TGI data for 7 compounds are collected here from PubChem BioAssay (NCI).

Common to all, as to assay: inhibition of tumour cell growth, NCI panel, 48 h
The test system of test [1] is MDA-MB-435.
The subject of test [2] is SNB-75 CNS.
Test [3] deals with SF-539 CNS.
Test [4] deals with HCT-116 colon.
Test [5] concerns EKVX NSCLC.
Test [6] has as its system SF-268 CNS.
The test system of test [7] is HL-60(TB) leukemia.
The test system of test [8] is HOP-62 NSCLC.
Test [9] has as its system OVCAR-3 ovarian.
The test system of test [10] is NCI-H226 lung.
The test system of test [11] is T-47D breast.
Test [12] concerns HCC-2998 colon.
Test [13] relates to NCI-H23 lung.
The subject of test [14] is RXF 393 renal.
Test [15] has as its system M14 melanoma.
Test [16] relates to MDA-N.
The subject of test [17] is 786-0 renal.
The test system of test [18] is CAKI-1 renal.
Test [19] relates to OVCAR-5 ovarian.
In test [20] the test system is SNB-19 CNS.

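Cultured in 96-well plates, cells were exposed to test compound for 48 hours across five concentrations. Definition used: TGI = concentration required for complete inhibition of growth.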 Where only a bound is given, the exact number is not on record here.

For `S=C1NCCN1C(=S)NC1CCCCC1`, the TGI in [1] was 67.6 µM; in test [2], 72.1 µM; in test [3], 70.7 µM; in test [4] it was above 100 µM; in test [5] it was above 100 µM; in test [6] it was above 100 µM. Moreover, the TGI in [7] is 96.7 µM; in test [8], above 100 µM; in test [9] it was above 100 µM; in [10] it was 75.2 µM; in test [11] it was above 100 µM; in test [12], 42.3 µM. In addition, the TGI in test [13] was 59.2 µM; in test [14] it was 28.6 µM; in test [15] it was 51.2 µM; in test [16] it was above 100 µM; in test [17], above 100 µM; in [18], 74.5 µM. Also, the TGI in test [19] was above 100 µM.

For `COC(=O)CCN1CCN(CCO)CC1C` (stereo not drawn), the TGI in [1], in [2], in [3], in [4], in test [5] and in [6] was above 10 µM each time. Moreover, the TGI in [7], in [8], in [9], in [10], in test [11] and in test [12] was above 10 µM in each case. In addition, the TGI in test [20], in [13], in test [14], in test [15], in [16] and in test [17] was above 10 µM each time. The compound further returned a TGI in test [18] above 10 µM.

As to `N=C1/C(=C/c2ccccc2)C(=O)N=C2SC=NN12`, the TGI in test [1] is above 100 µM; in test [2], above 100 µM; in test [3], 88.5 µM; in [4] it was above 100 µM; in test [5], above 100 µM; in [6], above 100 µM. Also, the TGI in [7], in [8], in test [9], in test [10], in test [11] and in test [12] was above 100 µM in each case. The TGI in [20], in [13], in [14], in test [15], in test [16] and in [17] was above 100 µM throughout. For the same compound, the TGI in [18] and in test [19] was above 100 µM in each case.

As to `Cc1ccccc1C(=O)NC(O)(C(F)(F)F)C(F)(F)F`, the TGI in [1] was above 100 µM; in test [2], 3.17 µM; in test [3] it was above 100 µM; in test [4] it was above 100 µM; in test [5], above 100 µM; in [6], above 100 µM. Besides, the TGI in test [7], in test [8], in test [9], in [10], in test [11] and in test [12] was above 100 µM throughout. For the same compound, the TGI in [20], in [13], in test [14], in [15], in test [16] and in [17] was above 100 µM in each case. Also, the TGI in [18] and in test [19] was above 100 µM each time.

As for `c1ccc(CNCCCNCCCCNCCCNCc2ccccc2)cc1`, the TGI in test [1] amounted to 8.91 µM; in [2], 21.7 µM; in test [3], 3.72 µM; in [4] it was 14.4 µM; in [5], 23.1 µM; in test [6], 25.6 µM. The TGI in test [7] was 4 µM; in test [8] it was 17.1 µM; in test [9] it was 28.3 µM; in test [10], 17.2 µM; in test [11] it was 39.8 µM; in test [12] it was 15.2 µM. Further, the TGI is 27.4 µM in [20]; 12.3 µM in [13]; 25.7 µM in test [14]; 16.1 µM in test [15]; 4.13 µM in test [16]; 2.97 µM in test [17]. In addition, the TGI in test [18] worked out at 23 µM; in test [19], 16.2 µM.

On to `Nc1ncnc2c1ccn2CC=C(CO)CO`, for which the TGI in [1], in [2], in test [3], in [4], in test [5] and in test [6] was above 100 µM each time. In addition, the TGI in test [7], in test [8], in test [9], in [10], in test [11] and in test [12] was above 100 µM each time. The TGI in test [20], in [13], in test [14], in [15], in [16] and in test [17] was above 100 µM throughout. For the same compound, the TGI in test [18] and in test [19] was above 100 µM in each case.

As to `C[C@]12CC[C@H]3[C@@H](CC=C4C[C@@H](O)CC[C@@]43C)[C@@H]1C[C@H](N1CCOCC1)[C@@H]2O`, the TGI in [1] was above 100 µM; in test [2] it was 97.4 µM; in test [3] it was above 100 µM; in test [4], above 100 µM; in test [5], above 100 µM; in [6], above 100 µM. Moreover, the TGI in test [7], in [8], in test [9], in test [10], in test [11] and in [12] was above 100 µM each time. The TGI in [20], in [13], in test [14], in test [15], in test [16] and in test [17] was above 100 µM in each case. Besides, the TGI in test [18] and in test [19] was above 100 µM throughout.
